According to patent US20210220450A1, “TREATMENT OF AN IOP CONDITION” (The Research Foundation for The State University of New York, priority 2013, published 2021):

What was measured:
[1] = system: sheep of the Corriedale breed; assay: Steroid-induced IOP elevation in sheep, intravitreal tPA (Examples 3, 4); type: in vivo
Method: Protocol 1. 8 sheep of the Corriedale breed were treated with prednisolone acetate three times a day in both eyes, leading to elevated IOP. After one week, the animals received intravitreal injections of human recombinant tPA (100, 200, 500 and 1000 μg, two animals each) dissolved in balanced salt solution (BSS) in one eye. IOP was monitored for 19 more days while the animals continued to receive treatment with prednisolone. Periodic slit lamp examination was also performed.
Protocol 2. In a second set of experiments, arginine was added to the BSS vehicle administered to the left eye to control for the relatively high concentration of the amino acid in the commercially available tPA lyophilisate. In these experiments all right eyes received 0.1 mg tPA, which concomitantly delivered 4.23 mg of arginine into the vitreous, and the left eye received this same amount of arginine, absent the tPA. On Day 1, prednisolone treatments were also begun simultaneously on both eyes.
Methods. In this experiment, the inventor sought to detect the effects of tPA treatment on prevention of steroid-induced IOP elevation. In 4 sheep tPA was injected in one eye (100 μg) and they were started on prednisolone acetate three times a day in both eyes. Animals were monitored for 11 days on continuous treatment.

[2] = system: sheep of the Coriedale breed; assay: Steroid-induced IOP elevation in sheep, tPA injected into the anterior chamber (Example 9); type: in vivo; conditions: amount of arginine associated with 0.01 ug tPA, injected alone
Method: Methods. Lyophilized tPA, obtained as Acetilyse® from Boehringer Ingelheim S. A. (Buenos Aires) containing arginine, was used. Five sheep of the Coriedale breed were selected. Initially all eyes received instillation of 1% prednisolone 3 times/day for 10 days to elevate their IOP from 10 mm Hg to about 23 mm Hg. Then, 0.0001 μg was injected into one of the eyes and its effect was followed for up to 55:00 hrs while the instillation of prednisolone continued in both eyes. The same protocol was implemented for the 0.001 and 0.01 μg amounts (after extended washout) in the contra lateral eyes. Arginine, which is associated with 0.01 ug tPA, was injected alone and had no effect.

Mmp-2, Mmp-9, Mmp-13 [3] = assay: Mmp expression in Tg-MYOCY437H angle ring tissue (Example 19); type: in vivo, mouse; conditions: 5 days, vs BSA treated eyes
Method: Eyes were flash frozen in liquid nitrogen after outflow facility determination and subsequently dissected on ice to obtain the angle ring tissues containing the TM, as previously described (Kumar, Shah et al. 2013). Dissected TM tissues were immersed in RNAlater solution (Invitrogen, Waltham, Mass., USA) and then snap-frozen and stored at −80° C. until RNA extraction. Tissue collected was pooled (four eyes) and homogenized in TRIzol reagent for RNA isolation, per manufacturer's instructions (Life Technologies, Carlsbad, Calif., USA). RNA concentration was determined with a Nanodrop ND-1000 Spectrophotometer (Thermo Scientific, Wilmington, Del., USA). cDNA was synthesized by using High-Capacity cDNA Reverse Transcription Kit (Applied Biosystems, Waltham, Mass., USA) according to manufacturer's protocol. Quantitative real-time PCR (qRT-PCR) was performed by using Green-2-Go qPCR Mastermix-ROX (Bio Basic, Amherst, N.Y., USA) on a QuantStudio 6 Flex thermal cycler (Applied Biosystems, Carlsbad, Calif., USA). mRNA expression of Plat, Plau, Pai-1, Mmp-2, Mmp-9, and Mmp-13 in angle ring tissues was determined. Primers were designed by using Primer-BLAST (https://www.ncbi.nlm.nih.gov/tools/primer-blast/index.cgi?LINK_LOC=BlastHome; in the public domain); primer sequences are listed in Table 2. Primer specificity was confirmed by agarose gel electrophoresis and multiple-sized amplification products were absent on inspection of melting curves. Target mRNA expression values were normalized to the expression levels of Rps11 (ribosomal protein S11). The relative fold change was calculated by using the ΔΔCt method (Hu, Wang et al. 2015). Outliers identified via the Thompson Tau test were removed from analysis.

MMP-2, MMP-9, MMP-13 [4] = assay: MMP expression in PA treated HTM cells (Examples 17, 18); type: cell-based
PLAT = PLAT mRNA in HTM cells after prednisolone (Example 8); type: cell-based; conditions: HTM cells from two donors; as early as 1 hour after prednisolone
Description: FIG. 8. Relative fold difference of PLAT mRNA from 18S mRNA amounts in HTM cells treated with prednisolone acetate (PA treated) or vehicle (Control) for […].

HTM cells = assay: Simulated outflow facility of HTM cells in artificial conventional outflow system (ACOS) (Examples 17, 18); type: cell-based; conditions: PA treatment
Method: HTM cells were treated with 300 nM prednisolone acetate (PA) for 72 h to reduce outflow facility. They were then treated with either tissue plasminogen activator (tPA), non-enzymatically active tPA (NE-tPA) or bovine serum albumin (BSA) and perfused in artificial conventional outflow system (ACOS). Simulated outflow facilities (mean±standard deviation) (μl/min/mmHg/mm^2) was 2.4±0.6×10-1 for PA, 3±1.2×10-1 for PA+BSA, 7±1.2×10-1 for PA+tPA and 5.4±0.9×10-1 for PA+NE-tPA (p<0.0001, ANOVA).
HTM cells were treated with PA+NE-tPA and inhibitors of either LRP1 (RAP) or NMDA receptor (MK-801) and were perfused in ACOS. Simulated outflow facility (meant standard deviation μl/min/mmHg/mm^2) was 5.5±0.7×10-1 for PA+NE-tPA, 2.9±1.3×10-1 for PA+NE-tPA+MK-801, 2.7±1.2×10-1 for PA+NE-tPA+RAP and 3.3±1.3×10-1 for PA+NE-tPA+MK-801+RAP.

C57/1B6 mice = assay: Outflow facility in TA-treated mice injected intracamerally with AdPLAT (Example 1); type: in vivo
Method: Methods: Adenoviral vectors carrying cDNA of the sheep PLAT gene and a fluorescent reporter gene (mCherry) (AdPLAT) or with no transgene (AdNull) were created. Transgene expression was driven by the CMV promoter. 3 groups of C57/1B6 mice received either: (1) 20 μl of triamcinolone acetonide (TA) suspension (40 mg/ml) subconjunctivally bilaterally followed immediately by unilateral intracameral injection with 2 μl AdPLAT (3-4×10^12 VG/ml); (2) 20 μl TA subconjunctivally bilaterally followed one week later by unilateral intracameral injection with 2 μl AdPLAT; or (3) 20 μl TA subconjunctivally bilaterally followed immediately by bilateral injection with 2 μl adenovirus AdNull. IOP was measured preterminally. Outflow facility was determined using simultaneous pressure and flow measurements (see FIGS. 2A-2C). After outflow facility measurement, all AdPLAT injected eyes were dissected and viewed under a fluorescent microscope to inspect for mCherry expression in the trabecular meshwork (TM).

C57BL/6J mice = assay: Outflow facility in TA and adenovirus treated C57BL/6J mouse eyes (Example 12); type: in vivo; conditions: TA exposed eyes vs naïve C57BL/6J
Method: Steroid, adenoviral and protein injections. Intracameral adenovirus and intravitreal protein injections were performed using a 10 μl Hamilton syringe with 36-gauge stainless steel needles (WPI Inc, Sarasota, Fla., USA) while subconjunctival injections were performed using a 100 μl Hamilton Syringe with 26-gauge needles (Precision Glide, Becton Dickinson & CO, Franklin Lakes, N.J., USA). All injections were performed under isoflurane inhalation anesthesia and topical anesthesia with 0.5% proparacaine. C57BL/6J mice undergoing adenovirus treatment received bilateral injections with 20 μl of triamcinolone acetonide (TA) suspension (40 mg/ml, Kenalog-40; Bristol-Myers Squibb, NY, USA) subconjunctivally immediately prior to the intracameral adenovirus injection. Animals were then divided into three groups (FIG. 10a): […]
Outflow facility determination: Mouse eyes were enucleated immediately after euthanasia. Outflow facility was determined using a constant pressure method, as previously described. […] Flow was constantly measured via a microfluidic flow sensor (0.07-1.5 uL/min, MFS1; Elveflow, Paris, France). […] Any eyes that developed visible leaks during outflow facility determination, or that had pressure-flow correlations with R^2<0.9, were excluded from analysis but were used for RNA quantification.

[5] = added to PA+NE-tPA, vs PA+NE-tPA treated cells

N=C(N)NCCC[C@H](N)C(=O)O [arginine, reference compound]
effect of arginine alone on steroid-increased IOP ([1]; 4.23 mg arginine intravitreal, prednisolone): does not alter | effect of arginine alone on outflow facility ([1]; eye receiving arginine plus prednisolone (OS)): failed to reduce | effect of arginine alone on IOP [2]: had no effect

O=C([O-])CCCc1ccccc1.[Na+] [PBA, sodium phenylbutarate, reference compound]
Mmp-2 expression (Mmp-2, Mmp-9, Mmp-13 [3]): no significant difference | Mmp-9 expression (Mmp-2, Mmp-9, Mmp-13 [3]): higher | Mmp-13 expression (Mmp-2, Mmp-9, Mmp-13 [3]): did not show any difference

C[C@]12N[C@H](Cc3ccccc31)c1ccccc12 [MK-801, reference compound]
MMP-2 expression (MMP-2, MMP-9, MMP-13 [4]; [5]): significantly lower | MMP-9 expression (MMP-2, MMP-9, MMP-13 [4]; [5]): significantly lower

CC(=O)OCC(=O)[C@@]1(O)CC[C@H]2[C@@H]3CCC4=CC(=O)C=C[C@]4(C)[C@H]3[C@@H](O)C[C@@]21C [prednisolone, prednisolone acetate, reference compound]
mean (±SD) IOP ([1]; prednisolone for 10 days, baseline 10.2 (±1.1) mmHg): 24.1(±1.6) mmHg | PLAT expression (PLAT): downregulation | reduction in outflow facility compared to baseline (HTM cells): ~73% | MMP-13 mRNA (MMP-2, MMP-9, MMP-13 [4]; PA treated HTM cells): below detectable limits

CC1(C)O[C@@H]2C[C@H]3[C@@H]4CCC5=CC(=O)C=C[C@]5(C)[C@@]4(F)[C@@H](O)C[C@]3(C)[C@]2(C(=O)CO)O1 [TA, triamcinolone acetonide]
outflow facility, mean±SD (C57/1B6 mice; TA only eyes, two weeks of TA, n=24): 0.0067±0.0028 μl/min/mmHg | outflow facility, mean±SD (C57/1B6 mice; contralateral eyes injected with TA alone, concurrent experiment, n=22): 0.0060±0.0025 μl/min/mmHg | reduction in outflow facility from baseline (C57BL/6J mice): ~46%
